Results on three compounds are retold here after patent publication US20220143035A1, “METHODS FOR TREATING AUTOIMMUNE OR AUTOINFLAMMATORY DISEASE” (UNIVERSITY OF WASHINGTON, priority 2019, published 2022).

Type in all cases: cell-based, human
The test system of test [1] is STING-independent DNA sensing pathway (SIDSP). The experiment in a line: RT-qPCR of IFNB1 mRNA in CT DNA-treated STING KO U937 cells. The conditions noted are these: PMA-differentiated STING KO U937 cells, CT DNA 16 hours; for SIDSP activation (IFNB1 mRNA expression): Ku-60019 0.125-1 μM, Nu-7441 0.25-2 μM, FIG. 4B. How it is done: (§1) FIG. 4A-K: Human DNA-PK is essential for the SIDSP. (A) PMA-differentiated STING KO U937 cells were treated with CT DNA for 16 hours in the presence of DMSO control, increasing concentrations of Ku-60019 ATM inhibitor [0.125, 0.25, 0.5, 1 μM], or Nu-7441 DNA-PK inhibitor [0.25, 0.5, 1, 2 μM], followed by western blot analysis of γ-H2AX phosphorylation. (B) PMA-differentiated STING KO U937 cells were treated with CT DNA for 16 hours in the presence of inhibitors as described in (A), followed by RT-qPCR analysis of IFNB1 mRNA expression. n.s.: not significant; ***:p<0.001. n=3 independent treatments per condition. (C) PMA-differentiated STING KO U937 cells were treated with CT DNA or RIG-I ligand in the presence of DMSO or Nu-7441 for 16 hours, followed by RT-qPCR analysis of IFNB1 mRNA expression. n.s.: not significant; ***:p<0.001. n=3 independent treatments per condition. (D) Western blot analysis of DNA-PK and STING in clonal lines of H1 control, STING KO and STING/DNA-PK DKO U937 cells. (E) PMA-differentiated STING KO and STING/DNA-PK DKO U937 cells were treated with CT DNA for 16 hours in DMSO or 2 μM Nu-7441, followed by RT-qPCR analysis of IFNB1 mRNA expression, normalized to Lipo control-treated cells. **:p<0.01. n=3 independent treatments per condition. (F) Primary human foreskin fibroblasts (HFF) and primary human hepatocytes from male (♂) and female (♀) donors were assessed for cGAS, STING, and DNA-PK proteins by fractionation into cytosol (C) and nuclear (N) extracts, followed by western blot. The nuclear extract was treated with salt-active nuclease to remove genomic DNA. (G) The indicated cell lines were stimulated with cGAMP for 16 hours before harvest and RT-qPCR analysis of IFNB1 mRNA expression. […] Multiple t-tests with significance determined by the Holm-Sidak method were used to compare IFNB1 in DMSO versus Nu7441 treated cells. *:p<0.05, ****:P<.0001. n=3 independent treatments per condition. […]

Test [2] has as its system histone H2AX on serine 139 (γ-H2AX). The experiment in a line: Western blot of γ-H2AX phosphorylation in CT DNA-treated STING KO U937 cells. The conditions noted are these: PMA-differentiated STING KO U937 cells, CT DNA 16 hours; Ku-60019 0.125-1 μM, Nu-7441 0.25-2 μM; FIG. 4A. How it is done:
as §1, with “(D) Western blot analysis of DNA-PK and STING in clonal lines of H1 control, STING KO and STING/DNA-PK DKO U937 cells. (E) PMA-differentiated STING KO and STING/DNA-PK DKO U937 cells were treated with CT DNA for 16 hours in DMSO or 2 μM Nu-7441, followed by RT-qPCR analysis of IFNB1 mRNA expression, normalized to Lipo control-treated cells. **:p<0.01. n=3 independent treatments per condition.” left out, “blot.” for “blot. The nuclear extract was treated with salt-active nuclease to remove genomic DNA. (G) The indicated cell lines were stimulated with cGAMP for 16 hours before harvest and RT-qPCR analysis of IFNB1 mRNA expression.”
On the technique in general: Immunoblotting shows a protein as a band on a membrane.

Test [3] deals with STING KO U937 cells (DNA-PK SIDSP). The experiment in a line: Global mRNA-Seq analysis in STING KO U937 cells.
Description: (A) Heat map representation of log 2 Fold Change in gene expression for the 124 antiviral response genes with significant differential expression in one of the four comparisons. The key includes a histogram in cyan plotting the distribution of log 2 Fold Change values for all the included genes. Data represent the average of three independent treatments per condition. […] Data represent the average of three independent treatments per condition. […] Data represent the average of three independent treatments per condition. (D) In H1 control U937 cells, the 16 hour CT DNA-activated log 2 Fold Change was plotted for DMSO control-treated cells on the x-axis and for Nu-7441-treated cells on the y-axis. Each dot represents a single gene that was differentially expressed at 16 hours in DMSO-treated cells (n=1024). […] A Wilcoxon matched pairs signed rank test was used to determine the p-value between DMSO control and Nu-7441-treated samples after DNA stimulation. Data represent the average of three independent treatments per condition. […]
Total RNA was added directly to lysis buffer from the SMART-Seq v4 Ultra Low Input RNA Kit for Sequencing (Takara), and reverse transcription was performed followed by PCR amplification to generate full length amplified cDNA. […] Libraries were pooled and quantified using a Qubit® Fluorometer (Life Technologies). Dual-index, single-read sequencing of pooled libraries was carried out on a HiSeq2500 sequencer (Illumina) with 58-base reads, using HiSeq™ v4 Cluster and SBS kits (IIlumina) with a target depth of 5 million reads per sample.
Test [4] deals with RNA-activated RIG-I-MAVS pathway. The test is described as follows: RT-qPCR of IFNB1 mRNA in RIG-I ligand-treated STING KO U937 cells. The conditions noted are these: PMA-differentiated STING KO U937 cells, RIG-I ligand 16 hours, DMSO or Nu-7441; FIG. 4C. How it is done: as §1, with “(D) Western blot analysis of DNA-PK and STING in clonal lines of H1 control, STING KO and STING/DNA-PK DKO U937 cells. (E) PMA-differentiated STING KO and STING/DNA-PK DKO U937 cells were treated with CT DNA for 16 hours in DMSO or 2 μM Nu-7441, followed by RT-qPCR analysis of IFNB1 mRNA expression, normalized to Lipo control-treated cells. **:p<0.01. n=3 independent treatments per condition.” left out, “blot.” for “blot. The nuclear extract was treated with salt-active nuclease to remove genomic DNA. (G) The indicated cell lines were stimulated with cGAMP for 16 hours before harvest and RT-qPCR analysis of IFNB1 mRNA expression.”

The next test concerns WT U937 cells. The test is described as follows: Global mRNA-Seq analysis in WT (H1 control) U937 cells. The text has this: FIG. 5A-F: The DNA-PK SIDSP activates a broad gene expression program. (A) Heat map representation of log 2 Fold Change in gene expression for the 124 antiviral response genes with significant differential expression in one of the four comparisons. The key includes a histogram in cyan plotting the distribution of log 2 Fold Change values for all the included genes. Data represent the average of three independent treatments per condition. […] Data represent the average of three independent treatments per condition. […] Data represent the average of three independent treatments per condition. (D) In H1 control U937 cells, the 16 hour CT DNA-activated log 2 Fold Change was plotted for DMSO control-treated cells on the x-axis and for Nu-7441-treated cells on the y-axis. Each dot represents a single gene that was differentially expressed at 16 hours in DMSO-treated cells (n=1024). […]
FIG. 8A-E: Normalized mRNA-Seq data comparing WT and STING KO U937 cells. (A) Boxplot depicting normalized read counts in log 2CPM format across all 36 samples. […] (C) Normalized read counts in log 2CPM format, comparing Lipo-treated WT U937 cells to Lipo-treated STING KO U937 cells. (D) Normalized read counts in log 2CPM format, comparing Lipo-treated WT U937 cells pretreated with DMSO or 2 μM N-7441. (E) Normalized read counts in log 2CPM format, comparing Lipo-treated STING KO cells pretreated with DMSO or 2 μM N-7441. […]

Test [5] deals with IRF3 S386 phosphorylation. The experiment in a line: Western blot of IRF3 pS386 in HEK 293 cells after DNA damage or stress agents. Conditions: STING KO HEK 293 cells, up to 12 hours; 50 μM Etoposide, 500 nM Thapsigargin.
In test [6] the test system is endoplasmic reticulum (ER) stress response. The test is described as follows: Endoplasmic reticulum stress response in HEK 293 cells. The conditions noted are these: 500 nM Thapsigargin, control.

On to `C[C@@H]1CN(CC(=O)Nc2ccc3c(c2)Cc2cccc(-c4cc(=O)cc(N5CCOCC5)o4)c2S3)C[C@H](C)O1` [Ku-60019], for which the “SIDSP activation (IFNB1 mRNA expression)” value in test [1] is “unaffected”. In addition, the “DNA-activated phosphorylation of the histone H2AX on serine 139 (γ-H2AX)” value in test [2] was “reduced the DNA-activated phosphorylation of the histone H2AX on serine 139 (γ-H2AX) in a concentration-dependent manner”.
Consider `O=c1cc(N2CCOCC2)oc2c(-c3cccc4c3sc3ccccc34)cccc12` [Nu-7441, 8-(dibenzo[b,d]thiophen-4-yl)-2-morpholino-4H-chromen-4-one], for which the “DNA-activated antiviral response (IFNB1 mRNA expression)” value in test [1] (DMSO or Nu-7441, FIG. 4C) was “blocked the DNA-activated antiviral response”. In addition, in test [1], the “SIDSP activation (IFNB1 mRNA expression)” value is listed as “potently blocked”. Moreover, the “DNA-activated phosphorylation of the histone H2AX on serine 139 (γ-H2AX)” value in test [2] is “reduced the DNA-activated phosphorylation of the histone H2AX on serine 139 (γ-H2AX) in a concentration-dependent manner”. Besides, the “differentially expressed genes on which the inhibitor had an inhibitory effect” value in test [3] (STING KO U937 cells, 16 hours post DNA transfection, 2 μM Nu-7441 vs vehicle, 1254/1327 genes, up- and downregulated, FIG. 5E) came out at 94.5%. The “effect on gene expression in the absence of DNA stimulation” value is given as “no significant effect” in test [3] (STING KO U937 cells, Lipo-treated, 2 μM, FIG. 8E) and “no significant effect” with WT U937 cells (Lipo-treated, 2 μM, FIG. 8D). Moreover, in test [3] (summary statement in discussion), the “gene expression triggered by the SIDSP” value was “potently reduced nearly all gene expression”. Further, in test [4], the “RNA-activated RIG-I-MAVS pathway (IFNB1 mRNA expression)” value is recorded as “had no effect”. Besides, the “differentially expressed genes on which the inhibitor had a (mild) inhibitory effect” value with WT U937 cells (16 hours post DNA transfection, 2 μM Nu-7441 vs vehicle, 718/1024 genes, FIG. 5D) was 70.1%.
For `C/C=C(/C)C(=O)O[C@H]1C(C)=C2[C@H]([C@@H]1OC(=O)CCCCCCC)[C@@](C)(OC(C)=O)C[C@H](OC(=O)CCC)[C@@]1(O)[C@H]2OC(=O)[C@@]1(C)O` [thapsigargin], the “activation of IRF3 phosphorylation” value in test [5] is “but not IRF3, HSPA8, or H2AX phosphorylation”. The “endoplasmic reticulum (ER) stress response” value in test [6] was “induced a potent endoplasmic reticulum (ER) stress response”.
